Experimental findings from patent US20110218188A1, “SUBSTITUTED (PYRIDYL)-AZINYLAMINE DERIVATIVES AS FUNGICIDES” (priority 2008, published 2011) are described below.

Molecules are shown by their SMILES. Marks after values point to notes of the source that are not given here.

The nature of one data set: Measurement of logP values by HPLC on reversed phase columns (EEC directive 79/831 Annex V.A8). The class given is physicochemical. The conditions noted are these: pH 2.3.
`COC1CCCN(C(=O)c2cc(-c3ncnc(Nc4cccc(Cl)c4)n3)ccn2)C1` (stereo not shown) [Example B179]: the “logP [b]” value is 2.76[b].

Staying with this data set, now noted: pH 2.7.
Broadly, the logP is a log measure of how a compound divides between an organic and an aqueous phase. The low end stands for a more hydrophilic compound, the high end for a more lipophilic compound. `CCCN(C)C(=O)c1cc(-c2ncnc(Nc3cccc(OC(F)(F)F)c3)n2)ccn1` [Example B264]: the logP is 3.37.
Regarding `CCN(C)C(=O)c1cc(-c2ncnc(Nc3cccc(S(F)(F)(F)(F)F)c3)n2)ccn1` [Example B252], the log partition coefficient (logP) was determined as 3.06.
As to `CCN(CC)C(=O)c1cc(-c2ncnc(Nc3ccc(F)c(C(F)F)c3)n2)ccn1` [Example B353], the lipophilicity (logP) is 2.86.
The same measure, in the same setting: to `CCN(C)C(=S)c1cc(-c2ncnc(Nc3cccc(OC(F)F)c3)n2)ccn1` [B424] belongs 3.06; to `CC(C)CN(C)C(=O)c1cc(-c2ncnc(Nc3cccc(OC(F)F)c3)n2)ccn1` [Example B301], 3.15.
The same measure, in the same setting: to `C#CCN(CC)C(=O)c1cc(-c2ncnc(Nc3cccc(C(F)F)c3)n2)ccn1` [B420] belongs 2.86; to `COCCN(C)C(=O)c1cc(-c2ncnc(Nc3cccc(OC(F)(F)F)c3)n2)ccn1` [Example B270], 2.86; to `CC(C)CC(=O)O/N=C(/N)c1cc(-c2ncnc(Nc3cccc(Cl)c3)n2)ccn1` [Example B110], 4.12.
Regarding `O=C(NC1CCCCC1)c1cc(-c2ncnc(Nc3cccc(Cl)c3)n2)ccn1` [B56], the logP came out at 4.46.
A word on the chromatographic logP: it is a lipophilicity value derived from retention on a column. Higher therefore signals higher lipophilicity. In turn, `C#CCN(c1ccccc1)c1ncnc(-c2ccnc(C(=O)N(C)CC3CC3)c2)n1` [Example B402, N-(cyclopropylmethyl)-N-methyl-4-{4-[phenyl(prop-2-yn-1-yl)amino]-1,3,5-triazin-2-yl}pyridine-2-carboxamide] yielded a chromatographic logP of 2.98.
`CN(C)C(=S)c1cc(-c2ncnc(Nc3cccc(C(F)F)c3)n2)ccn1` [B423] came in with a logP of 2.66.
Still for that read-out and setting: to `CCCN(C(=O)c1cc(-c2ncnc(Nc3cccc(Cl)c3)n2)ccn1)C(C)CC` (stereo not shown) [Example B171] belongs 4.13.
Compound `O=C(NCCCN1CCCC1=O)c1cc(-c2ncnc(Nc3cccc(Cl)c3)n2)ccn1` [B100] displayed a logP of 2.63.
On to `CCCN(C)C(=O)c1cc(-c2ncnc(Nc3ccsc3)n2)ccn1` [Example C14], for which the logP is on record as 2.45.
On to `CN(CCC#N)C(=O)c1cc(-c2ncnc(Nc3cccc(F)c3)n2)ccn1` [Example B1], for which the logP is given as 2.22.
`CCN(CC)C(=S)c1cc(-c2ncnc(Nc3ccsc3)n2)ccn1` [Example C22] registered a logP of 3.02.
Turning to `CN(CC1CC1)C(=O)c1cc(-c2ncnc(Nc3ccc(F)c(C(F)F)c3)n2)ccn1` [B411], the logP is listed as 2.98.
Take `COCCNC(=O)c1cc(-c2ncnc(Nc3cccc(SC)c3)n2)ccn1` [B214]: the logP is listed as 2.92.
Same read-out and setting: the figure for `COCCNC(=O)c1cc(-c2ncnc(Nc3ccc(F)c(Cl)c3)n2)ccn1` [B193] is 3.08; for `CC(C)N(C)C(=O)c1cc(-c2ccnc(Nc3ccnc(Cl)c3)n2)ccn1` [Example A28] it is 2.13.
Still for that read-out and setting: to `CC(=NOC1CCCC1)c1cc(-c2ncnc(Nc3cccc(Cl)c3)n2)ccn1` (mixture of isomers) [Example B38] belongs 5.79; to `CCCC(C)NC(=O)c1cc(-c2ncnc(Nc3ccc(C)c(Cl)c3)n2)ccn1` (stereo not shown) [B235], 5.
Consider `O=C(c1cc(-c2ncnc(Nc3cccc(Cl)c3)n2)ccn1)N1CCCC1` [Example B28], for which the log partition coefficient (logP) was determined as 2.88.
In turn, `CCCN(C)C(=O)c1cc(-c2ncnc(Nc3ccc(F)cc3)n2)ccn1` [Example B16] displayed a logP of 2.62.
The same measure, in the same setting: the figure for `COCc1cccc(Nc2ncnc(-c3ccnc(C(=O)N(C)C)c3)n2)c1` [Example B243] is 1.91; for `CN(CC1CC1)C(=O)c1cc(-c2ccnc(Nc3ccnc(Cl)c3)n2)ccn1` [Example A31] it is 2.28.
The same measure, in the same setting: to `COc1cccc(Nc2ncnc(-c3ccnc(C(=O)N(C)CC4CC4)c3)n2)c1F` [Example B275] belongs 2.7.
As to `CCN(C)C(=S)c1cc(-c2ncnc(Nc3cccc(OC(F)(F)C(F)F)c3)n2)ccn1` [Example B261], the logP is on record as 3.41.
Take `CC(C)CN(C)C(=O)c1cc(-c2ncnc(Nc3cccc(C#N)c3)n2)ccn1` [Example B295]: the logP came out at 2.73.
Same read-out and setting: the figure for `CCN(C)C(=S)c1cc(-c2ncnc(Nc3ccc(F)c(Cl)c3)n2)ccn1` [Example B209] is 3.33; for `CC(=NNc1ccc(Cl)cc1)c1cc(-c2ncnc(Nc3cccc(Cl)c3)n2)ccn1` [Example B82] it is 4.97; for `O=C(c1cc(Nc2nccc(-c3ccnc(C(=O)N4CCCCC4)c3)n2)ccn1)N1CCCCC1` [Example A6] it is 1.63.
Turning to `CN(C)C(=O)c1cc(-c2ncnc(Nc3ccc(F)c(F)c3)n2)ccn1` [Example B377], the logP was determined as 2.25.
Still for that read-out and setting: the figure for `Cc1ccc(Nc2ncnc(-c3ccnc(C(=O)N(C)CC(C)C)c3)n2)cc1Cl` [Example B368] is 3.78.
Still for that read-out and setting: to `CCC(COC)NC(=O)c1cc(-c2ncnc(Nc3ccc(C)c(Cl)c3)n2)ccn1` (stereo not shown) [B229] belongs 4.24; to `CC(C)CCNC(=O)c1cc(-c2ncnc(Nc3cccc(Cl)c3)n2)ccn1` [B61], 4.3; to `CC1CCC(C)N1C(=O)c1cc(-c2ncnc(Nc3cccc(Cl)c3)n2)ccn1` (stereo not shown) [Example B141], 3.64.
The same measure, in the same setting: to `CCN(CC)C(=O)c1cc(-c2ncnc(Nc3cccc(C(F)F)c3)n2)ccn1` [Example B285] belongs 2.73; to `CCN(C)C(=S)c1cc(-c2ncnc(Nc3ccc(F)c(C(F)F)c3)n2)ccn1` [Example B333], 3.04.
The compound `CC1CCCN(C(=O)c2cc(-c3ncnc(Nc4cccc(Cl)c4)n3)ccn2)C1C` (stereo not shown) [Example B137] registered a log partition coefficient (logP) of 3.78.
Same read-out and setting: to `CN(CCC#N)C(=O)c1cc(-c2ncnc(Nc3ccc(F)c(Cl)c3)n2)ccn1` [Example B201] belongs 2.58.
Consider `CCN(C)C(=O)c1cc(-c2ncnc(Nc3cccc(OC)c3)n2)ccn1` [Example B278], for which the lipophilicity (logP) is 2.26.
`C#CCN(c1cccc(Cl)c1)c1ncnc(-c2ccnc(C(=O)N(C)CCC#N)c2)n1` [B403]: the lipophilicity (logP) came out at 2.77.
On the same count and under the same terms, to `CCCN(C)C(=O)c1cc(-c2ncnc(Nc3ccc(F)c(C(F)F)c3)n2)ccn1` [Example B399] belongs 2.86.
Consider `CN(CC1CC1)C(=O)c1cc(-c2ncnc(Nc3cccc(C(F)F)c3)n2)ccn1` [Example B287], for which the logP amounted to 2.82.
Compound `COc1ccc(Nc2ncnc(-c3ccnc(C(=O)N(C)CC(C)C)c3)n2)cn1` [Example C9] displayed a logP of 2.37.
In the case of `CCN(CC)C(=O)c1cc(-c2ncnc(Nc3cccc(OC(F)(F)C(F)F)c3)n2)ccn1` [Example B348], the log partition coefficient (logP) was 3.29.
The same measure, in the same setting: the figure for `CCCCCNC(=O)c1cc(-c2ncnc(Nc3cccc(Cl)c3)n2)ccn1` [B67] is 4.35.
In turn, `C#CC(C)ON=C(C)c1cc(-c2ncnc(Nc3cccc(Cl)c3)n2)ccn1` (mixture of isomers) [B30] had a logP of 4.47.
Still for that read-out and setting: to `CCC(=NOCC(F)(F)F)c1cc(-c2ncnc(Nc3cccc(Cl)c3)n2)ccn1` (mixture of isomers) [B58] belongs 5.39; to `CN(CCC#N)C(=O)c1cc(-c2ncnc(Nc3cc(F)ccc3F)n2)ccn1` [Example B237], 2.1; to `CCN(C)C(=O)c1cc(-c2ncnc(Nc3ccc(C)c(Cl)c3)n2)ccn1` [Example B236], 3.02.
The same measure, in the same setting: to `Cc1ccc(Nc2ncnc(-c3ccnc(C(=O)NCCCN4CCCCCC4=O)c3)n2)cc1Cl` [B228] belongs 3.44; to `CN(CCC#N)C(=O)c1cc(-c2ncnc(Nc3cccc(C(F)F)c3)n2)ccn1` [Example B284], 2.25.
`C#CCON=C(C)c1cc(-c2ncnc(Nc3cccc(Cl)c3)n2)ccn1` (mixture of isomers) [Example B37] yielded a logP of 3.98.
On the same count and under the same terms, to `COCCCNC(=O)c1cc(-c2ncnc(Nc3cccc(Cl)c3)n2)ccn1` [B88] belongs 3.15; to `CCCN(C)C(=O)c1cc(-c2ncnc(Nc3cccc(C#N)c3)n2)ccn1` [Example B293], 2.45; to `COCCNC(=O)c1cc(-c2ncnc(Nc3cccc(Cl)c3)n2)ccn1` [B59], 2.84.
`Cc1ccc(Nc2nccc(-c3ccnc(C(=O)N(C)C)c3)n2)s1` [Example A48]: the logP was 2.13.
The compound `CN(CCC#N)C(=O)c1cc(-c2ncnc(Nc3cccc(OC(F)(F)F)c3)n2)ccn1` [Example B262] came in with a log partition coefficient (logP) of 2.8.
As for `CCOC(=O)c1cc(-c2ccnc(Nc3ccc(OC)nc3)n2)ccn1` [Example A1, ethyl 4-{2-[(6-methoxypyridin-3-yl)amino]-pyrimidin-4-yl}pyridine-2-carboxylate], the chromatographic logP was found to be 1.1.
The compound `CC(C)N(C)C(=O)c1cc(-c2ncnc(Nc3ccc(F)c(F)c3)n2)ccn1` [Example B383] returned a logP of 2.78.
For `CCN(CC)C(=O)c1cc(-c2ncnc(Nc3cccc(OC(F)F)c3)n2)ccn1` [Example B298], the logP came to 2.88.
As to `COCc1cccc(Nc2ncnc(-c3ccnc(C(=O)N(C)C(C)C)c3)n2)c1` [Example B246], the lipophilicity (logP) was determined as 2.42.
In turn, `CC(=NOC(C1CC1)C1CC1)c1cc(-c2ncnc(Nc3cccc(Cl)c3)n2)ccn1` (mixture of isomers) [Example B48] gave a logP of 5.64.
As for `O=C(NC1CCC1)c1cc(-c2ncnc(Nc3ccc(F)c(Cl)c3)n2)ccn1` [B199], the lipophilicity (logP) was 3.94.
On the same count and under the same terms, to `O=C(c1cc(-c2ncnc(Nc3cccc(Cl)c3)n2)ccn1)N1CCCC(CO)C1` (stereo not shown) [Example B145] belongs 2.3; to `CN(CC(F)F)C(=O)c1cc(-c2ncnc(Nc3ccsc3)n2)ccn1` [Example C21], 2.46.
On the same count and under the same terms, the figure for `CON(C)C(=O)c1cc(-c2ncnc(Nc3cccc(Cl)c3)n2)ccn1` [Example B186] is 2.59; for `COc1ccc(CON=C(C)c2cc(-c3ncnc(Nc4cccc(Cl)c4)n3)ccn2)cc1` (mixture of isomers) [B60] it is 4.96.

The data set is the same for the next values; noted with them: pH 7.8.
With `C=CCN(CC=C)C(=O)c1cc(-c2ncnc(Nc3ccc(OC)nc3)n2)ccn1` [Example C7], the logP was 2.58^[c].
With `CCCN(CCC)C(=O)c1cc(-c2ncnc(Nc3ccc(OC)nc3)n2)ccn1` [Example C3], the logP was 2.77^[c].
